# Experimental data taken from BindingDB's records for doi:10.1111/cbdd.12588 (Tehran University of Medical Sciences, 2015).
# What was measured:
# [1] = biological target: Acetylcholinesterase (Electrophorus electricus, UniProt O42275); test: Cholinesterase Inhibition Assay; conditions: pH 8
# Description: (§1) The target compounds were dissolved in a mixture of 1 mL DMSO and 9 mL methanol and diluted in 0.1 M KH2PO4/K2HPO4 buffer (pH 8.0) to obtain final concentrations.For each compound, five different concentrations were tested to obtain the range of 20-80% enzyme inhibition. The assay medium was composed of 3 mL of phosphatebuffer (0.1 M, pH 8.0), 100 µL of DTNB (0.01 M), 100 µL of enzyme solution (AChE or BuChE, 2.5 unit/mL), and 50 µL of test compound.
# [2] = biological target: Carboxylic ester hydrolase (Equus caballus, UniProt Q9N1N9); test: Cholinesterase Inhibition Assay; conditions: pH 8
# Description: as §1
# Chain of Carboxylic ester hydrolase (Q9N1N9 whole entry): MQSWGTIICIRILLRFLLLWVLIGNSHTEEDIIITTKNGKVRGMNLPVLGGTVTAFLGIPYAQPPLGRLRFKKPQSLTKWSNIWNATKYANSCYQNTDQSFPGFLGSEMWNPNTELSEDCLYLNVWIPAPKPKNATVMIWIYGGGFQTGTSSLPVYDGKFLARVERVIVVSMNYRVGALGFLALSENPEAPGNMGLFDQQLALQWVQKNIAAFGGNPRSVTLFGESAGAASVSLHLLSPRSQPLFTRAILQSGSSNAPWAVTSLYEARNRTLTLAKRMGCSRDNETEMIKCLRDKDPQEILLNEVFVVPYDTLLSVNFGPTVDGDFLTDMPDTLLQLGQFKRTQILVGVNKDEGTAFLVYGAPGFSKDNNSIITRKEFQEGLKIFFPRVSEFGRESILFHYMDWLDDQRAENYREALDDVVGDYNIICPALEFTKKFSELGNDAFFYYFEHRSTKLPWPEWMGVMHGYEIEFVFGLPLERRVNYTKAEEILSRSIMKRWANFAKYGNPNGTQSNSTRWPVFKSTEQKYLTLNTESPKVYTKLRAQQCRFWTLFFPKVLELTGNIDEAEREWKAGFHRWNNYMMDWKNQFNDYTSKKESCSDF
# Chain of Acetylcholinesterase (O42275 whole entry): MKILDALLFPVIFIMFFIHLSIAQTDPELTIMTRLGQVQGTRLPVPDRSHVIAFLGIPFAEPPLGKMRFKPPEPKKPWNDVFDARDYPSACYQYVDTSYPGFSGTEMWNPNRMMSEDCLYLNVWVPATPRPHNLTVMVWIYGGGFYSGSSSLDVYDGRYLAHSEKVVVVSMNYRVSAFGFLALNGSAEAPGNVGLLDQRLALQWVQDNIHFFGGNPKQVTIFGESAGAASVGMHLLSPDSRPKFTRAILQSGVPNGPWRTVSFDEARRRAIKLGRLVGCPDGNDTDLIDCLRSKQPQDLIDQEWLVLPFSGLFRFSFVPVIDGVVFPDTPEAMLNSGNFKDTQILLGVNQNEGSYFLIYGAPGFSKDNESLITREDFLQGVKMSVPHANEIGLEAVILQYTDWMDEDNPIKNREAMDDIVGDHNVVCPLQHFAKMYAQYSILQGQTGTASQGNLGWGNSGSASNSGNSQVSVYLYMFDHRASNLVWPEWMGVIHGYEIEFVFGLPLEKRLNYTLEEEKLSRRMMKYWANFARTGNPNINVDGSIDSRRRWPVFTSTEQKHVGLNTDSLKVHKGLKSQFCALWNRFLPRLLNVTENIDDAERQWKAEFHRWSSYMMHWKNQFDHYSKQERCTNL
Structure (SMILES),IC50 [1] [µM],IC50 [2] [µM]
"O=C(COc1cc(=O)oc2ccccc12)OCc1cn(Cc2ccc(F)cc2)nn1 [(1-(4-Fluorobenzyl)-1H-1,2,3-triazol-4-yl)methyl 2-(2-oxo-2H-chromen-4-yloxy)acetate (8j)]",2.54,> 50
"Cc1ccc(Cn2cc(COC(=O)COc3cc(=O)oc4ccccc34)nn2)cc1 [(1-(4-Methylbenzyl)-1H-1,2,3-triazol-4-yl)methyl 2-(2-oxo-2H-chromen-4-yloxy)acetate (8g)]",90,> 50
"O=C(COc1cc(=O)oc2ccccc12)OCc1cn(Cc2ccccc2Br)nn1 [(1-(2-Bromobenzyl)-1H-1,2,3-triazol-4-yl)methyl 2-(2-oxo-2H-chromen-4-yloxy)acetate (8a)]",2.14,43
"O=C(COc1cc(=O)oc2ccccc12)OCc1cn(Cc2ccccc2Cl)nn1 [(1-(2-Chlorobenzyl)-1H-1,2,3-triazol-4-yl)methyl 2-(2-oxo-2H-chromen-4-yloxy)acetate (8k)]",0.18,> 50
"COc1ccc(Cn2cc(COC(=O)COc3cc(=O)oc4ccccc34)nn2)cc1 [(1-(4-Methoxybenzyl)-1H-1,2,3-triazol-4-yl)methyl 2-(2-oxo-2H-chromen-4-yloxy)acetate (8e)]",104,> 50
"O=C(COc1cc(=O)oc2ccccc12)OCc1cn(Cc2ccccc2[N+](=O)[O-])nn1 [(1-(2-Nitrobenzyl)-1H-1,2,3-triazol-4-yl)methyl 2-(2-oxo-2H-chromen-4-yloxy)acetate (8n)]",0.53,> 50
"O=C(COc1cc(=O)oc2ccccc12)OCc1cn(Cc2ccc(Cl)cc2)nn1 [(1-(4-Chlorobenzyl)-1H-1,2,3-triazol-4-yl)methyl 2-(2-oxo-2H-chromen-4-yloxy)acetate (8m)]",13,> 50
"O=C(COc1cc(=O)oc2ccccc12)OCc1cn(Cc2cccc(Cl)c2)nn1 [(1-(3-Chlorobenzyl)-1H-1,2,3-triazol-4-yl)methyl 2-((2-oxo-2H-chromen-4-yl)oxy)acetate (8l)]",0.34,> 50
"O=C(COc1cc(=O)oc2ccccc12)OCc1cn(Cc2cccc(Br)c2)nn1 [(1-(3-Bromobenzyl)-1H-1,2,3-triazol-4-yl)methyl 2-(2-oxo-2H-chromen-4-yloxy)acetate (8b)]",1.79,> 50
"O=C(COc1cc(=O)oc2ccccc12)OCc1cn(Cc2ccc([N+](=O)[O-])cc2)nn1 [(1-(4-Nitrobenzyl)-1H-1,2,3-triazol-4-yl)methyl 2-(2-oxo-2H-chromen-4-yloxy)acetate (8o)]",137,> 50
"O=C(COc1cc(=O)oc2ccccc12)OCc1cn(Cc2ccc(Br)cc2)nn1 [(1-(4-Bromobenzyl)-1H-1,2,3-triazol-4-yl)methyl 2-(2-oxo-2H-chromen-4-yloxy)acetate (8c)]",87.9,> 50
"O=C(COc1cc(=O)oc2ccccc12)OCc1cn(Cc2ccccc2)nn1 [(1-Benzyl-1H-1,2,3-triazol-4-yl)methyl 2-((2-oxo-2H-chromen-4-yl)oxy)acetate (8p)]",15.8,> 50
"O=C(COc1cc(=O)oc2ccccc12)OCc1cn(Cc2ccccc2F)nn1 [(1-(2-Fluorobenzyl)-1H-1,2,3-triazol-4-yl)methyl 2-(2-oxo-2H-chromen-4-yloxy)acetate (8h)]",5.7,> 50
"Cc1ccccc1Cn1cc(COC(=O)COc2cc(=O)oc3ccccc23)nn1 [(1-(2-Methylbenzyl)-1H-1,2,3-triazol-4-yl)methyl 2-(2-oxo-2H-chromen-4-yloxy)acetate (8f)]",1.79,> 50
"O=C(COc1cc(=O)oc2ccccc12)OCc1cn(Cc2cccc(F)c2)nn1 [(1-(3-Fluorobenzyl)-1H-1,2,3-triazol-4-yl)methyl 2-(2-oxo-2H-chromen-4-yloxy)acetate (8i)]",1.64,> 50
"COc1cccc(Cn2cc(COC(=O)COc3cc(=O)oc4ccccc34)nn2)c1 [(1-(3-Methoxybenzyl)-1H-1,2,3-triazol-4-yl)methyl 2-(2-oxo-2H-chromen-4-yloxy)acetate (8d)]",7,> 50
